Measured values: PMC2990605 (British Journal of Cancer, 2010)

Assay: Adverse events (CTCAEv3.0), worst grade per patient regardless of relation, and laboratory parameters
Assay type: in vivo
Details: human, in vivo
Method: Toxicity was evaluated according to common toxicity criteria for adverse events (CTCAEv3.0). The MTD was defined as the dose level(s) at which at least two out of six patients developed DLT.
Toxicity assessment, haematology and clinical biochemistry were performed at baseline and weekly during the study. Physical and ECOG performance status were recorded at baseline and before the next cycle.

Which “Cough, CTCAE grade 3, patients” value does the source give for `CC(C)C[C@@H](C(=O)N[C@H](C(=O)OC1CCCC1)c1ccccc1)[C@H](O)C(=O)NO` [tosedostat] here?
The value was 0.

What about the “Cough, CTCAE grade 4, patients” value of the same molecule?
Its value is 0.

And the “Cough, patients with events, %” value?
Its value is 41%.

And the “Cystitis, CTCAE grade 1, patients” value?
Its value is 0.

What about the “Cystitis, CTCAE grade 2, patients” value of the same molecule?
The value was 1.

What about the “Cystitis, CTCAE grade 3, patients” value of the same molecule?
The value was 1.

What about the “Cystitis, CTCAE grade 4, patients” value of the same molecule?
Its value is 0.

What about the “Cystitis, patients with events, %” value of the same molecule?
The value was 9%.

What about the “Dehydration, CTCAE grade 1, patients” value of the same molecule?
The value was 0.

And the “Dehydration, CTCAE grade 2, patients” value?
Its value is 1.

What about the “Dehydration, CTCAE grade 3, patients” value of the same molecule?
The value was 1.

What about the “Dehydration, CTCAE grade 4, patients” value of the same molecule?
The value was 0.

What about the “Dehydration, patients with events, %” value of the same molecule?
Its value is 9%.

And the “Diabetes mellitus, CTCAE grade 1, patients” value?
Its value is 0.

What about the “Diabetes mellitus, CTCAE grade 2, patients” value of the same molecule?
Its value is 0.

What about the “Diabetes mellitus, CTCAE grade 3, patients” value of the same molecule?
The value was 1.

What about the “Diabetes mellitus, CTCAE grade 4, patients” value of the same molecule?
The value was 0.

What about the “Diabetes mellitus, patients with events, %” value of the same molecule?
Its value is 5%.

What about the “Diarrhoea, CTCAE grade 1, patients” value of the same molecule?
The value was 5.

What about the “Diarrhoea, CTCAE grade 2, patients” value of the same molecule?
Its value is 3.

And the “Diarrhoea, CTCAE grade 3, patients” value?
Its value is 0.

And the “Diarrhoea, CTCAE grade 4, patients” value?
The value was 0.

And the “Diarrhoea, patients with events, %” value?
Its value is 36%.

And the “Dizziness, CTCAE grade 1, patients” value?
Its value is 8.

What about the “Dizziness, CTCAE grade 2, patients” value of the same molecule?
The value was 1.

And the “Dizziness, CTCAE grade 3, patients” value?
Its value is 1.

And the “Dizziness, CTCAE grade 4, patients” value?
The value was 0.

And the “Dizziness, patients with events, %” value?
The value was 45%.

And the “Drug hypersensitivity, CTCAE grade 1, patients” value?
Its value is 3.

What about the “Drug hypersensitivity, CTCAE grade 2, patients” value of the same molecule?
Its value is 1.

And the “Drug hypersensitivity, CTCAE grade 3, patients” value?
The value was 7.

What about the “Drug hypersensitivity, CTCAE grade 4, patients” value of the same molecule?
The value was 0.

And the “Drug hypersensitivity, patients with events, %” value?
Its value is 50%.

And the “Dry skin, CTCAE grade 1, patients” value?
The value was 3.

And the “Dry skin, CTCAE grade 2, patients” value?
Its value is 0.

And the “Dry skin, CTCAE grade 3, patients” value?
Its value is 1.

What about the “Dry skin, CTCAE grade 4, patients” value of the same molecule?
The value was 0.

And the “Dry skin, patients with events, %” value?
The value was 18%.

And the “Dyspnoea, CTCAE grade 1, patients” value?
The value was 6.

And the “Dyspnoea, CTCAE grade 4, patients” value?
Its value is 0.

And the “Eosinophilic myocarditis, CTCAE grade 1, patients” value?
The value was 0.

What about the “Eosinophilic myocarditis, CTCAE grade 2, patients” value of the same molecule?
Its value is 0.

What about the “Eosinophilic myocarditis, CTCAE grade 3, patients” value of the same molecule?
Its value is 0.

What about the “Eosinophilic myocarditis, CTCAE grade 4, patients” value of the same molecule?
The value was 0.

What about the “Eosinophilic myocarditis, patients with events, %” value of the same molecule?
The value was 5%.

What about the “Erythema, CTCAE grade 1, patients” value of the same molecule?
Its value is 1.

What about the “Erythema, CTCAE grade 2, patients” value of the same molecule?
Its value is 0.

And the “Erythema, CTCAE grade 3, patients” value?
Its value is 1.

What about the “Erythema, CTCAE grade 4, patients” value of the same molecule?
The value was 0.

What about the “Erythema, patients with events, %” value of the same molecule?
The value was 9%.

What about the “Fatigue, CTCAE grade 1, patients” value of the same molecule?
The value was 5.

What about the “Fatigue, CTCAE grade 2, patients” value of the same molecule?
Its value is 10.

What about the “Fatigue, CTCAE grade 3, patients” value of the same molecule?
The value was 6.

What about the “Fatigue, CTCAE grade 4, patients” value of the same molecule?
The value was 0.

What about the “Fatigue, patients with events, %” value of the same molecule?
The value was 95%.

And the “Gastric dilatation, CTCAE grade 1, patients” value?
Its value is 0.

And the “Gastric dilatation, CTCAE grade 2, patients” value?
The value was 0.

What about the “Gastric dilatation, CTCAE grade 3, patients” value of the same molecule?
The value was 1.

What about the “Gastric dilatation, CTCAE grade 4, patients” value of the same molecule?
Its value is 0.

What about the “Gastric dilatation, patients with events, %” value of the same molecule?
The value was 5%.

And the “General physical health deterioration, CTCAE grade 1, patients” value?
Its value is 0.

And the “General physical health deterioration, CTCAE grade 2, patients” value?
The value was 0.

What about the “General physical health deterioration, CTCAE grade 3, patients” value of the same molecule?
The value was 1.

And the “General physical health deterioration, CTCAE grade 4, patients” value?
The value was 0.

What about the “General physical health deterioration, patients with events, %” value of the same molecule?
The value was 5%.

What about the “Hypercalcaemia, CTCAE grade 1, patients” value of the same molecule?
Its value is 0.

And the “Hypercalcaemia, CTCAE grade 2, patients” value?
The value was 0.

What about the “Hypercalcaemia, CTCAE grade 3, patients” value of the same molecule?
Its value is 1.

What about the “Hypercalcaemia, CTCAE grade 4, patients” value of the same molecule?
Its value is 0.

And the “Hypercalcaemia, patients with events, %” value?
The value was 5%.

And the “Hyperglycaemia, CTCAE grade 1, patients” value?
Its value is 0.

And the “Hyperglycaemia, CTCAE grade 2, patients” value?
Its value is 1.

And the “Hyperglycaemia, CTCAE grade 3, patients” value?
Its value is 2.

What about the “Hyperglycaemia, CTCAE grade 4, patients” value of the same molecule?
The value was 0.

And the “Hyperglycaemia, patients with events, %” value?
Its value is 14%.

What about the “Hyperhidrosis, CTCAE grade 1, patients” value of the same molecule?
The value was 2.

And the “Hyperhidrosis, CTCAE grade 2, patients” value?
The value was 0.

What about the “Hyperhidrosis, CTCAE grade 3, patients” value of the same molecule?
Its value is 1.

And the “Hyperhidrosis, CTCAE grade 4, patients” value?
The value was 0.

What about the “Hyperhidrosis, patients with events, %” value of the same molecule?
The value was 14%.

And the “Leukopenia, CTCAE grade 1, patients” value?
The value was 0.

And the “Leukopenia, CTCAE grade 2, patients” value?
The value was 1.

And the “Leukopenia, CTCAE grade 3, patients” value?
The value was 3.

What about the “Leukopenia, CTCAE grade 4, patients” value of the same molecule?
The value was 0.

And the “Leukopenia, patients with events, %” value?
Its value is 18%.

And the “Malaise, CTCAE grade 1, patients” value?
The value was 1.

And the “Malaise, CTCAE grade 2, patients” value?
Its value is 1.

And the “Malaise, CTCAE grade 3, patients” value?
Its value is 1.

What about the “Malaise, CTCAE grade 4, patients” value of the same molecule?
The value was 0.

What about the “Malaise, patients with events, %” value of the same molecule?
The value was 14%.

What about the “Mucosal inflammation, CTCAE grade 1, patients” value of the same molecule?
The value was 4.

And the “Mucosal inflammation, CTCAE grade 2, patients” value?
Its value is 1.

What about the “Mucosal inflammation, CTCAE grade 3, patients” value of the same molecule?
Its value is 0.

And the “Mucosal inflammation, CTCAE grade 4, patients” value?
The value was 0.

And the “Mucosal inflammation, patients with events, %” value?
Its value is 23%.

And the “Myalgia, CTCAE grade 1, patients” value?
Its value is 8.

And the “Myalgia, CTCAE grade 2, patients” value?
Its value is 1.

And the “Myalgia, CTCAE grade 3, patients” value?
The value was 1.

And the “Myalgia, CTCAE grade 4, patients” value?
The value was 0.

And the “Myalgia, patients with events, %” value?
The value was 45%.

And the “Nasopharyngitis, CTCAE grade 1, patients” value?
The value was 6.

What about the “Nasopharyngitis, CTCAE grade 2, patients” value of the same molecule?
Its value is 0.

What about the “Nasopharyngitis, CTCAE grade 3, patients” value of the same molecule?
Its value is 0.

And the “Nasopharyngitis, CTCAE grade 4, patients” value?
The value was 0.

What about the “Nasopharyngitis, patients with events, %” value of the same molecule?
Its value is 27%.

And the “Nausea, CTCAE grade 1, patients” value?
The value was 9.

And the “Nausea, CTCAE grade 2, patients” value?
The value was 1.

What about the “Nausea, CTCAE grade 3, patients” value of the same molecule?
The value was 0.

And the “Nausea, CTCAE grade 4, patients” value?
Its value is 0.

What about the “Nausea, patients with events, %” value of the same molecule?
The value was 45%.

And the “Neoplasms benign, malignant and unspecified (including cysts and polyps), patients with events, %” value?
Its value is 14%.

What about the “Nervous system disorders, patients with events, %” value of the same molecule?
Its value is 95%.

And the “Neutropenia, CTCAE grade 1, patients” value?
Its value is 0.

What about the “Neutropenia, CTCAE grade 2, patients” value of the same molecule?
The value was 0.

What about the “Neutropenia, CTCAE grade 3, patients” value of the same molecule?
Its value is 2.

What about the “Neutropenia, CTCAE grade 4, patients” value of the same molecule?
The value was 4.

What about the “Neutropenia, patients with events, %” value of the same molecule?
Its value is 27%.

And the “Oedema peripheral, CTCAE grade 1, patients” value?
The value was 6.

What about the “Oedema peripheral, CTCAE grade 2, patients” value of the same molecule?
The value was 2.

And the “Oedema peripheral, CTCAE grade 3, patients” value?
The value was 0.

And the “Oedema peripheral, CTCAE grade 4, patients” value?
Its value is 0.

What about the “Oedema peripheral, patients with events, %” value of the same molecule?
The value was 36%.

What about the “Oedema, CTCAE grade 1, patients” value of the same molecule?
The value was 4.

What about the “Oedema, CTCAE grade 2, patients” value of the same molecule?
The value was 0.

What about the “Oedema, CTCAE grade 3, patients” value of the same molecule?
The value was 1.

What about the “Oedema, CTCAE grade 4, patients” value of the same molecule?
Its value is 0.

What about the “Oedema, patients with events, %” value of the same molecule?
The value was 23%.

And the “Peripheral sensory neuropathy, CTCAE grade 1, patients” value?
The value was 6.

And the “Peripheral sensory neuropathy, CTCAE grade 2, patients” value?
The value was 4.

What about the “Peripheral sensory neuropathy, CTCAE grade 3, patients” value of the same molecule?
Its value is 3.

And the “Peripheral sensory neuropathy, CTCAE grade 4, patients” value?
The value was 0.

And the “Peripheral sensory neuropathy, patients with events, %” value?
Its value is 59%.

And the “Pollakiuria, CTCAE grade 1, patients” value?
Its value is 0.

And the “Pollakiuria, CTCAE grade 2, patients” value?
The value was 0.

And the “Pollakiuria, CTCAE grade 3, patients” value?
Its value is 1.

What about the “Pollakiuria, CTCAE grade 4, patients” value of the same molecule?
The value was 0.
